In patent publication US20080176898A1, “Phenyl Acetamides” (Bayer HealthCare AG, priority 2004, published 2008):

Experiments:
human CysLT2 receptor = target: T1, human CysLT2 receptor (Homo sapiens, UniProt Q9NS75); assay: Cellular in vitro test to determine the CysLT2 activity (aequorin luminescence, CHO K1 cells); format: cell-based; conditions: recombinant CHO K1 cells with aequorin and human CysLT2 receptor; antagonism of LTD4 (3×10^−8 M) induced calcium release; 15 minutes preincubation
T1 construct: expressed in transfected cells; host or cells: CHO K1 cells constitutively expressing aequorin
T1 sequence (Q9NS75 1-346): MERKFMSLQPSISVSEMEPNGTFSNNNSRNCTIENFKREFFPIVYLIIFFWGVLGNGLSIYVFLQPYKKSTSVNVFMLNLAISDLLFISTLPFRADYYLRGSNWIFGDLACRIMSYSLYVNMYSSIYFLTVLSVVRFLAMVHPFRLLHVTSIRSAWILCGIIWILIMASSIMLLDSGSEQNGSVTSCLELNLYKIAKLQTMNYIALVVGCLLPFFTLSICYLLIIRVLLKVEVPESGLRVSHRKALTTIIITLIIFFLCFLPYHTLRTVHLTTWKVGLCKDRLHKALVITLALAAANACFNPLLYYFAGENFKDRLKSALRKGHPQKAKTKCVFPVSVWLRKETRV
Source text: 1. Cellular In Vitro Test to Determine the CysLT2 Activity
A recombinant cell line is used to identify antagonists of the human cysteinyl-leukotriene 2 receptor (CysLT2R) and to quantify the activity of the substances described herein. The cell is originally derived from a hamster ovary epithelial cell (Chinese Hamster Ovary, CHO K1, ATCC: American Type Culture Collection, Manassas, Va. 20108, USA). The test cell line constitutively expresses the calcium-sensitive photoprotein aequorin which, after reconstitution with the cofactor coelenterazine, emits light when the cytoplasmic calcium concentration is increased (Rizzuto R, Simpson A W, Brini M, Pozzan T.; Nature 358 (1992) 325-327). The cell is additionally stably transfected with the human CysLT2 receptor (Heise et.al., JBC 275 (2000) 30531-30536). The resulting CysLT2R test cell responds to stimulation of the recombinant CysLT2 receptor (agonists: leukotriene D4 (LTD4) and leukotriene C4 (LTC4)) with an intracellular release of calcium ions, which can be quantified through the resulting aequorin luminescence with a suitable luminometer (Milligan G, Marshall F, Rees S, Trends in Pharmacological Sciences 17 (1996) 235-237). Preincubation with antagonists of the CysLT2 receptor reduces the calcium release induced by the agonists LTD4 and LTC4 and thus the measured amount of light.
(§1) Test procedure: The cells are plated out two days before the test in culture medium (DMEM/F12 with Glutamax, Gibco Cat. #61965-026; 10% FCS, Gibco Cat. #10270-106; 1.4 mM sodium pyruvate, Gibco Cat. #11360-039; 1.8 mM sodium bicarbonate, Gibco Cat. #25080-060; 10 mM HEPES, Gibco Cat. #15290-026; now belongs to Invitrogen GmbH, 76131 Karlsruhe) in 384-(or 1536-)well microtiter plates and kept in a cell incubator (96% humidity, 5% v/v CO2, 37° C.). On the day of the test, the culture medium is replaced by Tyrode solution (in mM: 140 NaCl, 5 KCl, 1 MgCl2, 2 CaCl2, 20 glucose, 20 HEPES) which additionally contains the cofactor coelenterazine (50 μM), and the microtiter plate is then incubated for a further 34 hours. 15 minutes after the test substances have been transferred into the wells of the microtiter plate, the resulting light signal is measured after addition of the LTD4 (3×10^−8 M) in the luminometer.

human CysLT1 receptor = target: T2, human CysLT1 receptor (Homo sapiens, UniProt Q9Y271); assay: Cellular in vitro test to determine the CysLT1 activity (aequorin luminescence, CHO K1 cells); format: cell-based; conditions: recombinant CHO K1 cells with aequorin and human CysLT1 receptor; antagonism of LTD4 (3×10^−9 M) induced calcium release; 15 minutes preincubation
T2 construct: expressed in transfected cells; host or cells: CHO K1 cells constitutively expressing aequorin
T2 sequence (Q9Y271 1-337): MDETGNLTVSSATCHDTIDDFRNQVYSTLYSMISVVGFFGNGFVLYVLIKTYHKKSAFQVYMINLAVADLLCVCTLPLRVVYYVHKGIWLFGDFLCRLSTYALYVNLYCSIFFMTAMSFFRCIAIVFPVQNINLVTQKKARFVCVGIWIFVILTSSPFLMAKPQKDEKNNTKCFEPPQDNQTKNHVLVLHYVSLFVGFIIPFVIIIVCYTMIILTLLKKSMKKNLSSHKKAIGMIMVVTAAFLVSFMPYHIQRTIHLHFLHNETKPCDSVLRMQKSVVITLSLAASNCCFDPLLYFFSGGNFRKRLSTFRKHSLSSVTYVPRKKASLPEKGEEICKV
Source text: 2. Cellular In Vitro Test to Determine the CysLT1 Activity
A recombinant cell line is used to identify antagonists of the human cysteinyl-leukotriene 1 receptor (CysLT1R) and to quantify the activity of the substances described herein. The cell is originally derived from a hamster ovary epithelial cell (Chinese Hamster Ovary, CHO K1, ATCC: American Type Culture Collection, Manassas, Va. 20108, USA). The test cell line constitutively expresses the calcium-sensitive photoprotein aequorin which, after reconstitution with the cofactor coelenterazine, emits light when the cytoplasmic calcium concentration is increased (Rizzuto R, Simpson A W, Brini M, Pozzan T.; Nature 358 (1992) 325-327). The cell is additionally stably transfected with the human CysLT1 receptor (Lynch et al., Nature 399 (1999) 789-793). The resulting CysLT1R test cell responds to stimulation of the recombinant CysLT1 receptor (agonist: leukotriene D4 (LTD4)) with an intracellular release of calcium ions, which can be quantified through the resulting aequorin luminescence with a suitable luminometer (Milligan G, Marshall F, Rees S, Trends in Pharmacological Sciences 17 (1996) 235-237). Preincubation with antagonists of the CysLT1 receptor reduces the calcium release induced by the agonist LTD4 and thus the measured amount of light.
as §1, with “384- (or” for “384-(or”, “3-4” for “34”, “LID4 (3×10^−9” for “LTD4 (3×10^−8”

SMILES	IC50 (human CysLT2 receptor)	IC50 (human CysLT1 receptor)
O=C(O)CCCNC(=O)Cc1cc(C(=O)O)ccc1OCCCc1ccc(OCCCCOc2ccccc2)cc1 [Example 13, 3-{2-[(3-Carboxypropyl)amino]-2-oxoethyl}-4-{3-[4-(4-phenoxybutoxy)phenyl]propoxy}benzoic acid]	140 nM	> 10000 nM
O=C(O)c1ccc(OCCCc2ccc(OCCCCOC3CCCCC3)cc2)c(CC(=O)N2CCCC(C(=O)O)C2)c1 (stereo not shown) [Example 25, 1-{[5-Carboxy-2-(3-{4-[4-(cyclohexyloxy)butoxy]phenyl}propoxy)phenyl]acetyl}piperidine-3-carboxylic acid]	45 nM	> 10000 nM
O=C(O)c1ccc(OCCCc2ccc(OCCCC3CCCCC3)cc2)c(CC(=O)N2CCC(C(=O)O)CC2)c1 [Example 33, 1-[(5-Carboxy-2-{3-[4-(3-cyclohexylpropoxy)phenyl]propoxy}phenyl)acetyl]piperidine-4-carboxylic acid]	70 nM	> 3000 nM

Other lines, results leading:

IC50 (human CysLT2 receptor)	IC50 (human CysLT1 receptor)	SMILES
75 nM	> 3000 nM	O=C(O)CNC(=O)Cc1cc(C(=O)O)ccc1OCCCc1ccc(OCCCC2CCCCC2)cc1 [Example 45, 3-{2-[(Carboxymethyl)amino]-2-oxoethyl}-4-{3-[4-(3-cyclohexylpropoxy)phenyl]propoxy}-benzoic acid]
45 nM	> 10000 nM	O=C(O)CCCNC(=O)Cc1cc(C(=O)O)ccc1OCCCc1ccc(OCCCC2CCCCC2)cc1 [Example 31, 3-{2-[(3-Carboxypropyl)amino]-2-oxoethyl}-4-{3-[4-(3-cyclohexylpropoxy)phenyl]propoxy}-benzoic acid]
